Series [1] can be described thus: fu,cell by equilibrium dialysis of cell homogenate, HEK293. The class given is in vitro ADME. As to conditions: human, dialysis 4 h 37°C, 10 million cells/mL homogenate, read-out: fu,HEK293 Geomean. As for the experimental part:
(§1) fu,cell was measured in cassette-mode as previously described with minor modifications ([9]). Briefly, 10 million cells/mL were suspended in HBSS buffered with 10 mM HEPES and homogenized on ice by sonication (VCX 750 Sonicator, 3 mm probe, 20% intensity, 10 s). Up to 8 compounds were combined randomly and spiked into the homogenate for a final concentration of 0.5 μM. Equilibrium dialysis was performed in a Rapid Equilibirum device (Thermo Fisher Scientific) against blank HBSS buffered with 10 mM HEPES, for 4 h at 37°C on an orbital shaker at 900 rpm. Stability controls were kept at 4° and 37°C for the duration of the experiment. The concentration in both dialysis chambers was quantified by extracting the compound with acetonitrile/water (60/40) containing internal standard. Matrixes were matched with blank buffer or cell homogenate, respectively. LC-MS/MS parameters are available in Table S9. All experiments were carried out in triplicates and at least at two independent occasions.
(§2) The unbound fraction in the cell homogenate (fu,hom) was determined according to Eq. (1):1 fu,hom=Cbuffer/Chom and the fraction of unbound compound in the cell (fu,cell) was calculated by correcting for homogenate dilution according to Eq. (2):2 fu,cell=1/DP∙1/fu,hom−1+1 where the dilution constant DP was calculated using Eq. (3), assuming the Vcell to be equal to 6.5 μL/mg protein ([6],[10]). Protein content in the cell homogenates was determined at each experiment using the BCA Protein Assay Reagent Kit (Thermo Fisher Scientific Inc.).3 DP=1/Vcell
For orientation: In equilibrium dialysis only unbound substance equilibrates across the membrane.

Series [2] in a line: fu,cell by equilibrium dialysis of cell homogenate, HL60. The conditions noted are these: human, dialysis 4 h 37°C, 10 million cells/mL homogenate, read-out: fu,HL60 Geomean. It counts as in vitro ADME. As for the experimental part: as §1, §2
The nature of series [3]: fu,cell by equilibrium dialysis of cell homogenate, Caco-2. The class given is in vitro ADME. As to conditions: human, Caco-2 cell homogenate, dialysis 4 h 37°C, 10 million cells/mL homogenate, read-out: fu,Caco-2 Geomean. As for the experimental part:
as §1
(§3) (3), assuming the Vcell to be equal to 6.5 μL/mg protein ([6],[10]). Protein content in the cell homogenates was determined at each experiment using the BCA Protein Assay Reagent Kit (Thermo Fisher Scientific Inc.).3 DP=1/Vcell

A short description of series [4]: fu,cell by equilibrium dialysis of cell homogenate, LLC-PK1. It counts as in vitro ADME. The conditions noted are these: pig, dialysis 4 h 37°C, 10 million cells/mL homogenate, read-out: fu,LLCPK1 Geomean. As for the experimental part:
as §1, §2

Series [5] can be described thus: fu,cell by equilibrium dialysis of cell homogenate, A549. The class given is in vitro ADME. The conditions noted are these: human, dialysis 4 h 37°C, 10 million cells/mL homogenate, read-out: fu,A549 Geomean. As for the experimental part:
as §1, §2

Series [6] is described as follows: fu,cell by equilibrium dialysis of cell homogenate, K562. It counts as in vitro ADME. The conditions noted are these: human, dialysis 4 h 37°C, 10 million cells/mL homogenate, read-out: fu,K562 Geomean. As for the experimental part: as §1, §2
Series [7] in a line: fu,cell by equilibrium dialysis of cell homogenate, MDCK. It counts as in vitro ADME. The conditions noted are these: dog, dialysis 4 h 37°C, 10 million cells/mL homogenate, read-out: fu,MDCK Geomean. As to the method:
as §1, §3

Series [8] in a line: fu,cell by equilibrium dialysis of cell homogenate, primary human hepatocytes. The class given is in vitro ADME. The conditions noted are these: primary human hepatocyte homogenate, dialysis 4 h 37°C, 10 million cells/mL homogenate, read-out: fu,HH Geomean. As to the method:
as §1, §2

Series [9] is described as follows: fu,PL from membrane affinity to PL-covered silica beads, PC. The class given is in vitro ADME. As to conditions: beads coated with pure PC, 15 min incubation; for fraction unbound at 15 min: silica beads covered with phosphatidylcholine (PC), Transil, read-out: fu,PC Geomean. As for the experimental part:
(§4) f u,PL was derived from membrane affinity measurements to beads covered with PLs as previously described ([6]).
(§5) Cbuffer was quantified by LC-MS/MS in samples of the supernatant that was obtained after 15 min incubation time on an orbital shaker at 1000 rpm and subsequent separation from the beads by centrifugation at 750 x g. […] Unspecific binding was evaluated by incubations into wells without added lipids.

Series [10] is described as follows: fu,PL from membrane affinity to PL-covered silica beads, PS. The conditions noted are these: silica beads covered with phosphatidylserine (PS), Transil; beads coated with pure PS, 15 min incubation; read-out: fu,PS Geomean. It counts as in vitro ADME. As to the method: as §4, §5
A short description of series [11]: fu,PL from membrane affinity to PL-covered silica beads, PE. The class given is in vitro ADME. As to conditions: beads coated with pure PE, 15 min incubation; read-out: fu,PE Geomean. As to the method: as §4, §5
Series [12] in a line: fu,PL from membrane affinity to PL-covered silica beads, mixed beads. The class given is in vitro ADME. As to conditions: mixed beads PC:PE:PS:PI 52:22:12:14 mol%, 15 min incubation; read-out: fu,mixed bead Geomean. As for the experimental part: as §4, §5
Series [13] concerns cell types of the study. As to conditions: contributions from several PL subspecies combined (Fig. 5b).

SMILES strings stand for the structures.

Consider `CCOc1cc(CC(=O)N[C@@H](CC(C)C)c2ccccc2N2CCCCC2)ccc1C(=O)O` [Repaglinide], for which the fraction unbound at 4 h, 0.5 μM in series [1] was determined as 0.0312; in [2], 0.0341; in series [3] it was 0.0225; in [4], 0.0305; in [5], 0.0254; in series [6], 0.0385. Moreover, the fraction unbound at 4 h, 0.5 μM in [7] came to 0.0269; in series [8], 0.0097. Moreover, the fraction unbound at 15 min worked out at 0.0114 in series [9], 0.0084 in [10], 0.0039 in series [11] and 0.0095 in series [12]. In series [13], the “predicted versus measured fu,cell” value was “consistently over-predicted”.

With `CCN(CC)CCCC(C)Nc1c2ccc(Cl)cc2nc2ccc(OC)cc12` (centres unmarked) [Quinacrine], the fraction unbound at 4 h, 0.5 μM worked out at 0.0075 in [1]; 0.0008 in series [4]; 0.0009 in [5]; 0.0164 in series [6]; 0.0036 in series [7]; 0.0066 in [8]. For the same compound, the “fu,PC Geomean” value in [9] worked out at 0.0002. Further, the fraction unbound at 15 min in series [10] is 0.001; in [12], 0.0029. Moreover, in series [13], the “predicted versus measured fu,cell” value was “consistently over-predicted”.

On to `COCCc1ccc(OCC(O)CNC(C)C)cc1` (centres unmarked) [Metoprolol], for which the fraction unbound at 4 h, 0.5 μM came to 0.0906 in series [1]; 0.339 in [2]; 0.174 in series [3]; 0.34 in [4]; 0.0881 in [5]; 1 in series [6]. Also, the fraction unbound at 4 h, 0.5 μM turned out to be 0.202 in series [7] and 0.374 in [8]. The fraction unbound at 15 min in series [9] came out at 0.0101; in series [10], 0.0081; in [11], 0.0099; in [12], 0.0148.

Take `COc1ccc([C@@H]2Sc3ccccc3N(CCN(C)C)C(=O)[C@@H]2OC(C)=O)cc1` [Diltiazem]: the fraction unbound at 4 h, 0.5 μM in [1] came out at 0.0637; in series [2], 0.206; in series [3], 0.1; in [4] it was 0.0588; in series [5], 0.0287; in [6], 0.119. The fraction unbound at 4 h, 0.5 μM in series [7] amounted to 0.069; in series [8] it was 0.0445. For the same compound, the fraction unbound at 15 min in series [9] is 0.0023; in [10], 0.0016; in [11], 0.0083; in series [12], 0.0034.

Take `COc1ccc2[nH]c([S+]([O-])Cc3ncc(C)c(OC)c3C)nc2c1` (centres unmarked) [Omeprazole]: the fraction unbound at 4 h, 0.5 μM in series [1] was determined as 0.463; in [2], 0.223; in series [3], 0.181; in series [4] it was 0.238; in series [5], 0.232; in series [6], 0.419. The fraction unbound at 4 h, 0.5 μM in [7] came out at 0.255; in series [8], 0.161. Also, the fraction unbound at 15 min worked out at 0.0203 in [9], 0.0154 in [10], 0.0131 in [11] and 0.0237 in series [12].

With `Cc1ccccc1N1C(=O)c2cc(S(N)(=O)=O)c(Cl)cc2NC1C` (centres unmarked) [Metolazone], the fraction unbound at 4 h, 0.5 μM was found to be 0.226 in [1]; 0.445 in [2]; 0.133 in [3]; 0.144 in series [4]; 0.416 in series [5]; 0.485 in series [6]. Further, the values for the fraction unbound at 4 h, 0.5 μM in series [7] and in [8] were 0.37 and 0.0709, respectively. Further, the fraction unbound at 15 min was found to be 0.0059 in series [9], 0.0093 in series [10], 0.0085 in series [11] and 0.0069 in [12].

For the compound `OC(Cn1cncn1)(Cn1cncn1)c1ccc(F)cc1F` [Fluconazole], the fraction unbound at 4 h, 0.5 μM in series [1] came to 0.1; in [2], 0.646; in series [3], 0.456; in series [4] it was 0.159; in series [5], 0.159; in series [6], 1. Moreover, the fraction unbound at 4 h, 0.5 μM in series [7] was 0.229; in [8] it was 0.737. The fraction unbound at 15 min in series [9] turned out to be 0.0428; in series [10], 0.0045; in series [11], 0.0081; in series [12], 0.028.
